Experimental data taken from ChEMBL document CHEMBL1201862, “PubChem BioAssay data set” (2004).
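Step 1: Grow cells in 96-well plates. Step 2: Expose to compound for 48 hours at 5 concentrations. Step 3: Interpolate endpoints linearly; if unreached, use highest concentration. At the GI50, growth is halved.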 Calls of active or inactive are those of the source. No stated cut-off is given here; in the data, active = GI50 up to about 1.1 µM and inactive = higher.

How the values were obtained:
Test in all cases: DTP human tumour cell line panel, 48 h
[1] = system: 786-0
[2] = system: A498
[3] = system: A549
[4] = system: ACHN
[5] = system: CAKI-1
[6] = system: CCRF-CEM
[7] = system: COLO 205
[8] = system: DLD-1
[9] = system: DMS-114
[10] = system: DMS-273
[11] = system: EKVX
[12] = system: HCC 2998
[13] = system: HCT-116
[14] = system: HCT-15
[15] = system: HL-60
[16] = system: HOP-18
[17] = system: HOP-62
[18] = system: HOP-92
[19] = system: HT-29
[20] = system: IGROV-1
[21] = system: K562
[22] = system: KM-20L2
[23] = system: KM12
[24] = system: LOX IMVI
[25] = system: LXFL 529
[26] = system: M14
[27] = system: MOLT-4
[28] = system: Malme-3M
[29] = system: NCI-H226
[30] = system: NCI-H23
[31] = system: NCI-H460
[32] = system: NCI-H522
[33] = system: OVCAR-3
[34] = system: OVCAR-4
[35] = system: OVCAR-5
[36] = system: OVCAR-8
[37] = system: RPMI-8226
[38] = system: RXF 631
[39] = system: SF-268
[40] = system: SF-295
[41] = system: SF-539
[42] = system: SK-MEL-28
[43] = system: SK-MEL-2
[44] = system: SK-OV-3
[45] = system: SN12C
[46] = system: SNB-19
[47] = system: SNB-78
[48] = system: SW-620
[49] = system: TK-10
[50] = system: U-251
[51] = system: UACC-257
[52] = system: UACC-62
[53] = system: UO-31
[54] = system: XF498
[55] = system: M19-MEL
[56] = system: SK-MEL-5
[57] = system: SNB-75

Measured: GI50

COC(=O)NN1C(C)=C(C(=O)OC)C2(CCOC2=O)C1(C)O (centres undefined)
> 100 µM: [14]
inactive: [1] > 100 µM | [2] > 100 µM | [3] > 100 µM | [4] > 100 µM | [5] > 100 µM | [6] > 100 µM | [7] > 100 µM | [8] > 100 µM | [9] > 100 µM | [10] > 100 µM | [11] > 100 µM | [12] > 100 µM | [13] > 100 µM | [15] > 100 µM | [16] > 100 µM | [17] > 100 µM | [18] > 100 µM | [19] > 100 µM | [20] > 100 µM | [21] > 100 µM | [22] > 100 µM | [23] > 100 µM | [24] > 100 µM | [25] > 100 µM | [26] > 100 µM | [27] > 100 µM | [28] > 100 µM | [29] > 100 µM | [30] > 100 µM | [31] > 100 µM | [32] > 100 µM | [33] > 100 µM | [34] > 100 µM | [35] > 100 µM | [36] > 100 µM | [37] > 100 µM | [38] > 100 µM | [39] > 100 µM | [40] > 100 µM | [41] > 100 µM | [42] > 100 µM | [43] > 100 µM | [44] > 100 µM | [45] > 100 µM | [46] > 100 µM | [47] > 100 µM | [48] > 100 µM | [49] > 100 µM | [50] > 100 µM | [51] > 100 µM | [52] > 100 µM | [53] > 100 µM | [54] > 100 µM

COc1cc2c(cc1OC)C(=O)Cc1ccc(OC)c(OC)c1CN(C)CC2
> 100 µM: [14]
inactive: [1] > 100 µM | [2] 11.9 µM | [3] > 100 µM | [4] 27.7 µM | [5] > 100 µM | [6] > 100 µM | [7] > 100 µM | [8] > 100 µM | [9] > 100 µM | [10] > 100 µM | [11] > 100 µM | [12] > 100 µM | [13] > 100 µM | [16] 32.4 µM | [17] > 100 µM | [18] 20.5 µM | [19] > 100 µM | [20] > 100 µM | [21] > 100 µM | [22] > 100 µM | [23] > 100 µM | [24] > 100 µM | [25] > 100 µM | [26] > 100 µM | [55] > 100 µM | [27] > 100 µM | [28] > 100 µM | [29] > 100 µM | [30] > 100 µM | [31] 15.6 µM | [32] > 100 µM | [33] > 100 µM | [34] > 100 µM | [35] > 100 µM | [36] > 100 µM | [37] > 100 µM | [38] > 100 µM | [39] > 100 µM | [41] > 100 µM | [42] > 100 µM | [43] > 100 µM | [56] > 100 µM | [44] > 100 µM | [45] > 100 µM | [46] > 100 µM | [57] > 100 µM | [47] > 100 µM | [48] > 100 µM | [49] > 100 µM | [50] > 100 µM | [51] > 100 µM | [52] > 100 µM | [53] > 100 µM | [54] 24.5 µM
